Reference: patent US20080193398A1, “Derivatives of Heptaazaphenalene, Methods for Obtaining Them, and Their Use as Protecting Agents Against Uv Radiation” (ISDIN, S.A., priority 2005, published 2008)
“And” between values parts separate entries of the source, which are not always exact repeats. Equal values may be shown once.

Experiments:
[1] = UV absorption (UV λmax and εmax) in solution; type: physicochemical
Excerpt: There follow some examples where the UV λmax and εmax have been measured according to general methods known for the person skilled in the art by way of non-restrictive illustration of the present invention.

For `CCCCOC(=O)c1ccc(NC2=NC3=NC(Nc4ccc(C(=O)OCCCC)cc4)=NC4=NC(Nc5ccc(C(=O)OCCCC)cc5)=NC(=N2)N34)cc1` [Example 1, 2,5,8-tris-(4-(butoxycarbonyl)phenylamino)-1,3,4,6,7,9,9b-heptaazaphenalene], the “UV λmax” value ([1]; CHCl3—EtOH) was 325 nm, the εmax ([1]; CHCl3—EtOH) was 100000 M⁻¹ cm⁻¹ and the melting point was 289 to 290 °C.

For `CCCCC(CC)COC(=O)c1ccc(NC2=NC3=NC(Nc4ccc(C(=O)OCC(CC)CCCC)cc4)=NC4=NC(Nc5ccc(C(=O)OCC(CC)CCCC)cc5)=NC(=N2)N34)cc1` (stereo not shown) [Example 2, 2,5,8-tris-(4-(2-ethylhexyloxycarbonyl)phenylamino)-1,3,4,6,7,9,9b-heptaazaphenalene], the “UV λmax” value ([1]; CHCl3) was 326 nm, the εmax ([1]; CHCl3) was 95000 M⁻¹ cm⁻¹ and the melting point was 183 to 186 °C.

For `c1ccc2[nH]c(-c3ccc(NC4=NC5=NC(Nc6ccc(-c7nc8ccccc8[nH]7)cc6)=NC6=NC(Nc7ccc(-c8nc9ccccc9[nH]8)cc7)=NC(=N4)N56)cc3)nc2c1` [Example 8, 2,5,8-tris-(4-(1H-benzo[d]imidazol-2-yl)phenylamino)-1,3,4,6,7,9,9b-heptaazaphenalene], the melting point was over 275 °C.

For `O=C(c1ccccc1)c1ccc(NC2=NC3=NC(Nc4ccc(C(=O)c5ccccc5)cc4)=NC4=NC(Nc5ccc(C(=O)c6ccccc6)cc5)=NC(=N2)N34)cc1` [Example 14, 2,5,8-tris-(4-benzoylphenylamino)-1,3,4,6,7,9,9b-heptaazaphenalene], the “UV λmax” value ([1]; DMSO) was 339 nm, the εmax ([1]; DMSO) was 112000 M⁻¹ cm⁻¹ and the melting point was over 270 °C.

With `c1cnn(-c2ccc(NC3=NC4=NC(Nc5ccc(-n6cccn6)cc5)=NC5=NC(Nc6ccc(-n7cccn7)cc6)=NC(=N3)N45)cc2)c1` [Example 15, 2,5,8-tris-(4-(1H-pyrazol-1-yl)phenylamino)-1,3,4,6,7,9,9b-heptaazaphenalene] the “UV λmax” value ([1]; DMSO) was 330 nm, the εmax ([1]; DMSO) was 99000 M⁻¹ cm⁻¹ and the melting point was 224 to 227 °C.

For `c1ccc2cc(NC3=NC4=NC(Nc5ccc6ccccc6c5)=NC5=NC(Nc6ccc7ccccc7c6)=NC(=N3)N45)ccc2c1` [Example 17, 2,5,8-tris-(naphthalen-2-ylamino)-1,3,4,6,7,9,9b-heptaazaphenalene], the “UV λmax” value ([1]; DMSO) was 279 nm and 331 nm, the εmax ([1]; DMSO) was 89000 M⁻¹ cm⁻¹ and 75000 M⁻¹ cm⁻¹ and the melting point was over 275 °C.

For `COc1cccc(NC2=NC3=NC(Nc4cccc(OC)c4)=NC4=NC(Nc5cccc(OC)c5)=NC(=N2)N34)c1` [Example 20, 2,5,8-tris-(3-methoxyphenylamino)-1,3,4,6,7,9,9b-heptaazaphenalene], the “UV λmax” value ([1]; MeOH) was 312 nm, the εmax ([1]; MeOH) was 62000 M⁻¹ cm⁻¹ and the melting point was over 275 °C.

For `CCOC(=O)/C=C/c1ccc(NC2=NC3=NC(Nc4ccc(/C=C/C(=O)OCC)cc4)=NC4=NC(Nc5ccc(/C=C/C(=O)OCC)cc5)=NC(=N2)N34)cc1` [Example 22, 2,5,8-tris-(4-((E)-3-ethoxy-3-oxoprop-1-enyl)phenylamino)-1,3,4,6,7,9,9b-heptaazaphenalene], the “UV λmax” value ([1]; DMSO) was 359 nm, the εmax ([1]; DMSO) was 135900 M⁻¹ cm⁻¹ and the melting point was over 275 °C.

With `COC(=O)c1ccc(NC2=NC3=NC(Nc4ccc(C(=O)OC)cc4)=NC4=NC(Nc5ccc(C(=O)OC)cc5)=NC(=N2)N34)cc1` [Example 24, 2,5,8-tris-(4-(methoxycarbonyl)phenylamino)-1,3,4,6,7,9,9b-heptaazaphenalene] the “UV λmax” value ([1]; DMSO) was 329 nm, the εmax ([1]; DMSO) was 116000 M⁻¹ cm⁻¹ and the melting point was 288 to 291 °C.

With `C(=C\c1ccc(NC2=NC3=NC(Nc4ccc(/C=C/c5ccccc5)cc4)=NC4=NC(Nc5ccc(/C=C/c6ccccc6)cc5)=NC(=N2)N34)cc1)/c1ccccc1` [Example 28, 2,5,8-tris-((4-(E)-styrylphenyl)amino)-1,3,4,6,7,9,9b-heptaazaphenalene] the “UV λmax” value ([1]; DMSO) was 367 nm, the εmax ([1]; DMSO) was 163000 M⁻¹ cm⁻¹ and the melting point was over 270 °C.

In the case of `CC(C)[C@@H]1CC[C@@H](C)C[C@H]1OC(=O)c1ccc(NC2=NC3=NC(Nc4ccc(C(=O)O[C@@H]5C[C@H](C)CC[C@H]5C(C)C)cc4)=NC4=NC(Nc5ccc(C(=O)O[C@@H]6C[C@H](C)CC[C@H]6C(C)C)cc5)=NC(=N2)N34)cc1` [Example 30, 2,5,8-tris-(4-(L-menthylcarbonyl)phenylamino)-1,3,4,6,7,9,9b-heptaazaphenalene], the “UV λmax” value ([1]; DMSO) is reported as 326 nm, the εmax ([1]; DMSO) is reported as 118000 M⁻¹ cm⁻¹ and the melting point is reported as 202 to 206 °C.

In the case of `CC1CC(OC(=O)c2ccc(NC3=NC4=NC(Nc5ccc(C(=O)OC6CC(C)CC(C)(C)C6)cc5)=NC5=NC(Nc6ccc(C(=O)OC7CC(C)CC(C)(C)C7)cc6)=NC(=N3)N45)cc2)CC(C)(C)C1` (stereo not shown) [Example 31, 2,5,8-tris-(4-((3,3,5-trimethylcyclohexyloxy)carbonyl)phenylamino)-1,3,4,6,7,9,9b-heptaazaphenalene], the “UV λmax” value ([1]; DMSO) is reported as 329 nm, the εmax ([1]; DMSO) is reported as 143000 M⁻¹ cm⁻¹ and the melting point is reported as over 275 °C.

For `CCCCC(CC)COC(=O)/C=C/c1ccc(NC2=NC3=NC(Nc4ccc(/C=C/C(=O)OCC(CC)CCCC)cc4)=NC4=NC(Nc5ccc(/C=C/C(=O)OCC(CC)CCCC)cc5)=NC(=N2)N34)cc1` (stereo not shown) [Example 32, 2,5,8-tris-(4-((E)-3-(2-ethylhexyloxy)-3-oxoprop-1-enyl)phenylamino)-1,3,4,6,7,9,9b-heptaazaphenalene], the “UV λmax” value ([1]; DMSO) was 358 nm, the εmax ([1]; DMSO) was 154000 M⁻¹ cm⁻¹ and the melting point was 213 to 216 °C.

With `CCCCC(CC)COC(=O)/C=C/c1cccc(NC2=NC3=NC(Nc4cccc(/C=C/C(=O)OCC(CC)CCCC)c4)=NC4=NC(Nc5cccc(/C=C/C(=O)OCC(CC)CCCC)c5)=NC(=N2)N34)c1` (stereo not shown) [Example 33, 2,5,8-tris-(3-((E)-3-(2-ethylhexyloxy)-3-oxoprop-1-enyl)phenylamino)-1,3,4,6,7,9,9b-heptaazafenaleno] the “UV λmax” value ([1]; DMSO) was 290 nm, the εmax ([1]; DMSO) was 126000 M⁻¹ cm⁻¹ and the melting point was 206 to 210 °C.

In the case of `CCCCCCC(CCCC)COC(=O)c1ccc(NC2=NC3=NC(Nc4ccc(C(=O)OCC(CCCC)CCCCCC)cc4)=NC4=NC(Nc5ccc(C(=O)OCC(CCCC)CCCCCC)cc5)=NC(=N2)N34)cc1` (stereo not shown) [Example 36, 2,5,8-tris-(4-(2-butyloctyloxycarbonyl)phenylamino)-1,3,4,6,7,9,9b-heptaazaphenalene], the “UV λmax” value ([1]; CHCl3) is reported as 326 nm, the εmax ([1]; CHCl3) is reported as 119000 M⁻¹ cm⁻¹ and the melting point is reported as 215 to 222 °C.

For `CCCCCCCCCCCCCCCCOC(=O)c1ccc(NC2=NC3=NC(Nc4ccc(C(=O)OCCCCCCCCCCCCCCCC)cc4)=NC4=NC(Nc5ccc(C(=O)OCCCCCCCCCCCCCCCC)cc5)=NC(=N2)N34)cc1` [Example 42, 2,5,8-tris-(4-(hexadecyloxycarbonyl)phenylamino)-1,3,4,6,7,9,9b-heptaazaphenalene], the “UV λmax” value ([1]; DMSO) was 324 nm, the εmax ([1]; DMSO) was 125000 M⁻¹ cm⁻¹ and the melting point was 252 to 255 °C.
